In PubChem BioAssay AID220 (DTP/NCI, 2004):
Values joined by “and” are separate entries in the source; they are usually repeats but may differ in a detail not shown here. Identical values can stand only once. Results filed as inconclusive are left out. Starred links: 1 amine or outer side, 2 acyl side, 3 side chain; linkers in the order of their positions; H or OH if unused. Positions of bridges follow the written chain, without caps; N, C: chain ends. Non-standard residues stand in square brackets, D forms with d. Residues, ends and D or L forms follow the SMILES beside them. Chains are numbered I, II in the order given. Actinocin(9to1) = Cc1c2oc3c(C)ccc(C(=O)[*:1])c3nc-2c(C(=O)[*:2])c(N)c1=O; NMeV = CN[CH](C(=O)O)C(C)C; Sar = CNCC(=O)O

Tested on: CD8F1 mice, subcutaneous mammary adenocarcinoma, T/C%
Assay: NCI In Vivo Anticancer Drug Screen. Data for tumor model Mammary Adenocarcinoma CD8F1 (subcutaneous) in CD8F1
Conditions: higher = larger tumour
In short: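 Transplantable tumors were established in mice, animals were dosed with compound or vehicle, and survival or tumor size was then measured in both groups. The treated result was divided by the control result.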

[1] = endpoint: median tumor weight (est.), dose: 50.0 mg/kg/injection, schedule: Q07DX005 (ip), vehicle: Klucel (hydroxypropylcellulose) (HPC)
[2] = endpoint: median tumor weight (est.), dose: 100.0 mg/kg/injection, schedule: Q07DX005 (ip), vehicle: Klucel (hydroxypropylcellulose) (HPC)
[3] = endpoint: median tumor weight (est.), dose: 200.0 mg/kg/injection, schedule: Q07DX005 (ip), vehicle: Klucel (hydroxypropylcellulose) (HPC)
[4] = endpoint: median tumor weight (est.), dose: 400.0 mg/kg/injection, schedule: Q07DX005 (ip), vehicle: Klucel (hydroxypropylcellulose) (HPC)
[5] = endpoint: median tumor weight change, dose: 125.0 mg/kg/injection, schedule: Q01DX001 (ip), vehicle: saline with Tween-80
[6] = endpoint: mean tumor weight, dose: 12.5 mg/kg/injection, schedule: Q07DX004 (ip), vehicle: saline with Tween-80
[7] = endpoint: mean tumor weight, dose: 25.0 mg/kg/injection, schedule: Q07DX004 (ip), vehicle: saline with Tween-80
[8] = endpoint: median tumor weight change, dose: 100.0 mg/kg/injection, schedule: Q01DX001 (ip), vehicle: Klucel (hydroxypropylcellulose) (HPC)
[9] = endpoint: median tumor weight change, dose: 200.0 mg/kg/injection, schedule: Q01DX001 (ip), vehicle: Klucel (hydroxypropylcellulose) (HPC)

With `CN(C)N=Nc1ccc(S(N)(=O)=O)cc1` the T/C (endpoint: median tumor weight (est.), dose: 12.5 mg/kg/injection, schedule: Q07DX005 (ip), vehicle: Klucel (hydroxypropylcellulose) (HPC)) was 225 % of control and 117 % of control, the T/C [1] was 213 % of control and 73 % of control and the T/C [2] was 72 % of control and 93 % of control. For the same molecule, the T/C [3] was 48 % of control and the T/C [4] was 22 % of control.
For `CCc1nc(N)nc(N)c1-c1ccc(Cl)c(N=[N+]=[N-])c1`, the T/C (endpoint: median tumor weight change, dose: 62.5 mg/kg/injection, schedule: Q01DX001 (ip), vehicle: saline with Tween-80) was 57 % of control, the T/C [5] was 78 % of control and the T/C (endpoint: median tumor weight change, dose: 2000.0 mg/kg/injection, schedule: Q01DX001 (ip), vehicle: saline with Tween-80) was 24 % of control.
With `O=C1SC(c2ccccc2)=S=C1c1ccccc1` the T/C [5] was 67 % of control, the T/C (endpoint: median tumor weight change, dose: 250.0 mg/kg/injection, schedule: Q01DX001 (ip), vehicle: saline with Tween-80) was 100 % of control and the T/C (endpoint: median tumor weight change, dose: 500.0 mg/kg/injection, schedule: Q01DX001 (ip), vehicle: saline with Tween-80) was 60 % of control. For the same molecule, the T/C (endpoint: median tumor weight change, dose: 1000.0 mg/kg/injection, schedule: Q01DX001 (ip), vehicle: saline with Tween-80) was 56 % of control.
`O=C(Nc1ccc(C2=NCCN2)cc1)c1ccc(C(=O)Nc2ccc(C3=NCCN3)cc2)c(Cl)c1` was tested, and the T/C (endpoint: mean tumor weight, dose: 6.25 mg/kg/injection, schedule: Q07DX004 (ip), vehicle: saline with Tween-80) was 70 % of control, the T/C [6] was 77 % of control and the T/C [7] was 71 % of control.
For `COc1cc2cc(c1Cl)N(C)C(=O)CC(OC(=O)C(C)C)C1(C)OC1C(C)C1CC(O)(NC(=O)O1)C(OC)/C=C/C=C(C)C2` (stereo unspecified), the T/C (endpoint: median tumor weight (est.), dose: 9.3 micrograms/kg/injection, schedule: Q07DX005 (ip), vehicle: saline + alcohol) was 79 % of control, the T/C (endpoint: median tumor weight (est.), dose: 18.7 micrograms/kg/injection, schedule: Q07DX005 (ip), vehicle: saline + alcohol) was 103 % of control and the T/C (endpoint: median tumor weight (est.), dose: 75.0 micrograms/kg/injection, schedule: Q07DX005 (ip), vehicle: saline + alcohol) was 89 % of control. The T/C (endpoint: median tumor weight (est.), dose: 150.0 micrograms/kg/injection, schedule: Q07DX005 (ip), vehicle: saline + alcohol) was 45 % of control.
In the case of `C=C1C(=O)C23[C@H](O)C1CC[C@H]2[C@]12COC3(O)[C@@H](O)[C@@H]1C(C)(C)CC[C@@H]2O`, the T/C (endpoint: median tumor weight (est.), dose: 8.75 mg/kg/injection, schedule: Q07DX005 (ip), vehicle: Klucel (hydroxypropylcellulose) (HPC)) is reported as 104 % of control, the T/C (endpoint: median tumor weight (est.), dose: 17.5 mg/kg/injection, schedule: Q07DX005 (ip), vehicle: Klucel (hydroxypropylcellulose) (HPC)) is reported as 65 % of control and the T/C (endpoint: median tumor weight change, dose: 15.62 mg/kg/injection, schedule: Q01DX001 (ip), vehicle: saline with Tween-80) is reported as 54 % of control. For the same molecule, the T/C (endpoint: median tumor weight change, dose: 31.25 mg/kg/injection, schedule: Q01DX001 (ip), vehicle: saline with Tween-80) was 61 % of control.
In the case of `CCOC(=O)Nc1cc2c(c(N)n1)N=C(CN(C)c1ccccc1)CN2`, the T/C (endpoint: median tumor weight (est.), dose: 3.12 mg/kg/injection, schedule: Q07DX005 (ip), vehicle: Klucel (hydroxypropylcellulose) (HPC)) is reported as 268 % of control, the T/C (endpoint: median tumor weight (est.), dose: 6.25 mg/kg/injection, schedule: Q07DX005 (ip), vehicle: Klucel (hydroxypropylcellulose) (HPC)) is reported as 70 % of control and the T/C (endpoint: median tumor weight (est.), dose: 25.0 mg/kg/injection, schedule: Q07DX005 (ip), vehicle: Klucel (hydroxypropylcellulose) (HPC)) is reported as 69 % of control and 79 % of control.
In the case of `NCCc1ccc(O)c(O)c1`, the T/C (endpoint: mean tumor weight, dose: 300.0 mg/kg/injection, schedule: Q07DX005 (ip), vehicle: saline) is reported as 39 % of control, the T/C (endpoint: mean tumor weight, dose: 600.0 mg/kg/injection, schedule: Q07DX005 (ip), vehicle: saline) is reported as 87 % of control and the T/C (endpoint: median tumor weight (est.), dose: 25.0 mg/kg/injection, schedule: Q07DX005 (ip), vehicle: saline) is reported as 62 % of control. The T/C (endpoint: median tumor weight (est.), dose: 200.0 mg/kg/injection, schedule: Q07DX005 (ip), vehicle: saline) was 83 % of control and the T/C (endpoint: median tumor weight (est.), dose: 300.0 mg/kg/injection, schedule: Q07DX005 (ip), vehicle: saline) was 74 % of control.
In the case of `COc1cc2c[n+](C)c3c(c2cc1OC)Cc1cc2c(cc1-3)OCO2`, the T/C (endpoint: median tumor weight change, dose: 62.5 mg/kg/injection, schedule: Q01DX001 (ip), vehicle: suspension in saline) is reported as 92 % of control and the T/C (endpoint: median tumor weight change, dose: 125.0 mg/kg/injection, schedule: Q01DX001 (ip), vehicle: suspension in saline) is reported as 105 % of control.
In the case of `C[C@]12CCC(=O)C=C1CC[C@@H]1[C@@H]2[C@@H](O)C[C@@]2(C)[C@H]1CC[C@]2(O)C(=O)CO`, the T/C [1] is reported as 76 % of control, the T/C [2] is reported as 95 % of control and the T/C [3] is reported as 60 % of control. For the same molecule, the T/C [4] was 29 % of control, the T/C (endpoint: median tumor weight (est.), dose: 800.0 mg/kg/injection, schedule: Q07DX005 (ip), vehicle: Klucel (hydroxypropylcellulose) (HPC)) was 21 % of control and the T/C [8] was 101 % of control. The T/C [9] was 99 % of control, the T/C (endpoint: median tumor weight change, dose: 400.0 mg/kg/injection, schedule: Q01DX001 (ip), vehicle: Klucel (hydroxypropylcellulose) (HPC)) was 110 % of control and the T/C (endpoint: median tumor weight change, dose: 800.0 mg/kg/injection, schedule: Q01DX001 (ip), vehicle: Klucel (hydroxypropylcellulose) (HPC)) was 57 % of control.
In the case of `COc1cccc2c1C(=O)c1c(O)c3c(c(O)c1C2=O)CC(O)(C(=O)CO)CC3OC1CC(N)C(O)C(C)O1` (stereo unspecified), the T/C (endpoint: median tumor weight (est.), dose: 12.0 mg/kg/injection, schedule: Q07DX006 (ip), vehicle: saline) is reported as 37 % of control, the T/C (endpoint: median tumor weight (est.), dose: 20.0 mg/kg/injection, schedule: Q07DX005 (ip), vehicle: water) is reported as 33 % of control and the T/C (endpoint: median tumor weight (est.), dose: 24.0 mg/kg/injection, schedule: Q07DX006 (ip), vehicle: saline) is reported as 18 % of control. For the same molecule, the T/C (endpoint: median tumor weight (est.), dose: 30.0 mg/kg/injection, schedule: Q07DX005 (ip), vehicle: saline) was 33 % of control, the T/C (endpoint: median tumor weight (est.), dose: 30.0 mg/kg/injection, schedule: Q07DX005 (ip), vehicle: water) was 11 % of control and 22 % of control and the T/C (endpoint: median tumor weight (est.), dose: 45.0 mg/kg/injection, schedule: Q07DX005 (ip), vehicle: water) was 1 % of control and 11 % of control. For the same molecule, the T/C (endpoint: median tumor weight (est.), dose: 48.0 mg/kg/injection, schedule: Q07DX006 (ip), vehicle: saline) was 1 % of control and the T/C (endpoint: median tumor weight (est.), dose: 60.0 mg/kg/injection, schedule: Q07DX005 (ip), vehicle: saline) was 14 % of control and 18 % of control.
In the case of `O=C[C@@H](CO)O[C@H](C=O)n1cnc2c(=O)[nH]cnc21`, the T/C [6] is reported as 119 % of control, the T/C [7] is reported as 98 % of control and the T/C (endpoint: mean tumor weight, dose: 50.0 mg/kg/injection, schedule: Q07DX004 (ip), vehicle: saline with Tween-80) is reported as 76 % of control. For the same molecule, the T/C (endpoint: mean tumor weight, dose: 100.0 mg/kg/injection, schedule: Q07DX004 (ip), vehicle: saline with Tween-80) was 78 % of control, the T/C (endpoint: mean tumor weight, dose: 200.0 mg/kg/injection, schedule: Q07DX004 (ip), vehicle: saline with Tween-80) was 100 % of control and the T/C (endpoint: mean tumor weight, dose: 400.0 mg/kg/injection, schedule: Q07DX004 (ip), vehicle: saline with Tween-80) was 67 % of control. The T/C (endpoint: median tumor weight (est.), dose: 12.5 mg/kg/injection, schedule: Q07DX005 (ip), vehicle: saline with Tween-80) was 95 % of control, the T/C (endpoint: median tumor weight (est.), dose: 25.0 mg/kg/injection, schedule: Q07DX005 (ip), vehicle: saline with Tween-80) was 116 % of control and the T/C (endpoint: median tumor weight (est.), dose: 50.0 mg/kg/injection, schedule: Q07DX005 (ip), vehicle: saline with Tween-80) was 118 % of control. The T/C (endpoint: median tumor weight (est.), dose: 100.0 mg/kg/injection, schedule: Q07DX005 (ip), vehicle: saline with Tween-80) was 113 % of control, the T/C (endpoint: median tumor weight (est.), dose: 200.0 mg/kg/injection, schedule: Q07DX005 (ip), vehicle: saline with Tween-80) was 84 % of control and the T/C (endpoint: median tumor weight (est.), dose: 400.0 mg/kg/injection, schedule: Q07DX005 (ip), vehicle: saline with Tween-80) was 82 % of control.
With `CC(C)CC(=O)NC(C(=O)NC(C(=O)NC(CC(C)C)C(O)CC(=O)NC(C)C(=O)NC(CC(C)C)C(O)CC(=O)O)C(C)C)C(C)C` (stereo unspecified) the T/C (endpoint: median tumor weight change, dose: 62.5 mg/kg/injection, schedule: Q01DX001 (ip), vehicle: Klucel (hydroxypropylcellulose) (HPC)) was 97 % of control.
For `Cc1c2oc3c(C)ccc(C(=O)NC4C(=O)NC(C(C)C)C(=O)N5CCCC5C(=O)N(C)CC(=O)N(C)C(C(C)C)C(=O)OC4C)c3nc-2c(C(=O)NC2C(=O)NC(C(C)C)C(=O)N3CCCC3C(=O)N(C)CC(=O)N(C)C(C(C)C)C(=O)OC2C)c(N)c1=O` (stereo unspecified) (I: TVP[Sar][NMeV] / II: TVP[Sar][NMeV]; ester I:1-I:C, II:1-II:C; linker I:N-II:N via Actinocin(9to1); configuration not given here), the T/C (endpoint: median tumor weight (est.), dose: 0.5 mg/kg/injection, schedule: Q07DX005 (ip), vehicle: saline) was 26 % of control and 30 % of control and the T/C (endpoint: median tumor weight (est.), dose: 1.0 mg/kg/injection, schedule: Q07DX005 (ip), vehicle: saline) was 3 % of control and 20 % of control.
In the case of `Cn1cc(C2NC(=O)c3ccccc3N2)c2ccccc21` (stereo unspecified), the T/C (endpoint: median tumor weight change, dose: 25.0 mg/kg/injection, schedule: Q01DX001 (ip), vehicle: Klucel (hydroxypropylcellulose) (HPC)) is reported as 85 % of control, the T/C (endpoint: median tumor weight change, dose: 50.0 mg/kg/injection, schedule: Q01DX001 (ip), vehicle: Klucel (hydroxypropylcellulose) (HPC)) is reported as 85 % of control and the T/C [8] is reported as 91 % of control. For the same molecule, the T/C [9] was 71 % of control, the T/C (endpoint: median tumor weight change, dose: 500.0 mg/kg/injection, schedule: Q01DX001 (ip), vehicle: Klucel (hydroxypropylcellulose) (HPC)) was 68 % of control and the T/C (endpoint: median tumor weight change, dose: 1000.0 mg/kg/injection, schedule: Q01DX001 (ip), vehicle: Klucel (hydroxypropylcellulose) (HPC)) was 33 % of control.
